In US7064120B2, “Tricyclic pyridyl carboxamides and derivatives thereof tocolytic oxytocin receptor antagonists” (Wyeth, priority 2001, dated 2006):

Target: T1, human oxytocin receptor (Homo sapiens, UniProt P30559)
T1 construct: host or cells: CHO cells, stably transfected (pcDNA3.1 vector)
T1 sequence (P30559 1-389): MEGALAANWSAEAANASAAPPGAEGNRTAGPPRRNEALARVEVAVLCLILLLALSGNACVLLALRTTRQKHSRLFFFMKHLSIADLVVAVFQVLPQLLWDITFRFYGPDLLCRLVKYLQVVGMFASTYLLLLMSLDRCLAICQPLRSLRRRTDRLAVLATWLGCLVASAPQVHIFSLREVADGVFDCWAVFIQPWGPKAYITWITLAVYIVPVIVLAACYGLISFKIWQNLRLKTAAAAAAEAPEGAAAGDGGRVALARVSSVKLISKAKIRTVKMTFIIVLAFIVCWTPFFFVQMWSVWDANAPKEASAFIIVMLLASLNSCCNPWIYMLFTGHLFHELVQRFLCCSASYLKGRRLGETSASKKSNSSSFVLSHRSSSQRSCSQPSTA
Experiment: Oxytocin binding in CHO cell membranes expressing human oxytocin receptors ([3H]oxytocin radioligand binding)
Settings: 100 nM; for inhibition at 0.1 µM: read-out: OT % inhibition @ 100 nM
Summary of the method: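 CHO membranes expressing human oxytocin receptor (25–50 μg protein/well) incubated 60 min at room temperature with [3H]oxytocin in Tris-HCl pH 7.4 buffer with MgCl2, BSA and protease inhibitors. Filtration and scintillation counting; reported as % inhibition at a stated concentration or nM IC50.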

| inhibition at 0.1 µM [%] | SMILES | OT % inhibition @ 100 nM [%] |
| --- | --- | --- |
| 38 | COc1cc(C(=O)N2Cc3ccc(C(=O)N4CCN(c5ccncc5)CC4)n3Cc3ccccc32)ccc1-n1c(C)ccc1C [Example 146, {10-[4-(2,5-Dimethyl-1H-pyrrol-1-yl)-3-methoxybenzoyl]-10,11-dihydro-5H-pyrrolo[2,1-c][1,4]benzodiazepin-3-yl}[4-(pyridin-4-yl)-1-piperazinyl]methanone] | – |
| 97 | COc1ccccc1-c1ccc(C(=O)N2Cc3ccc(C(=O)N4CCCCC4c4cccnc4)n3Cc3ccccc32)cc1C (stereo not drawn) [Example 138, {10-[(2′-Methoxy-2-methyl-[1,1′-biphenyl]-4-yl)carbonyl]-10,11-dihydro-5H-pyrrolo[2,1-c][1,4]benzodiazepin-3-yl}[2-(3-pyridinyl)-1-piperidinyl]methanone] | – |
| 13 | Cc1ccccc1-c1ccc(C(=O)N2Cc3ccc(C(=O)N4CCN(c5ccncc5)CC4)n3Cc3ccccc32)cc1 [Example 117, {10-[(2′-Methyl-[1,1′-biphenyl]-4-yl)carbonyl]-10,11-dihydro-5H-pyrrolo[2,1-c][1,4]benzodiazepin-3-yl}[4-(4-pyridinyl)-1-piperazinyl]methanone] | – |
| 61 | COc1ccccc1-c1ccc(C(=O)N2Cc3ccc(C(=O)N4CCN(c5ccncc5)CC4)n3Cc3ccccc32)cc1OC [Example 122, {10-[(2,2′-Dimethoxy-[1,1′-biphenyl]-4-yl)carbonyl]-10,11-dihydro-5H-pyrrolo[2,1-c][1,4]benzodiazepin-3-yl}[4-(4-pyridinyl)-1-piperazinyl]methanone] | – |
| 95 | COc1cc(-c2ccccc2C)c(Cl)cc1C(=O)N1Cc2ccc(C(=O)N3CCCCC3c3cccnc3)n2Cc2ccccc21 (stereo not drawn) [Example 140, {10-[(6-Chloro-3-methoxy-2′-methyl-[1,1′-biphenyl]-4-yl)carbonyl]-10,11-dihydro-5H-pyrrolo[2,1-c][1,4]benzodiazepin-3-yl}[2-(3-pyridinyl)-1-piperidinyl]methanone] | – |
| 67 | COc1cccc(-c2cc(OC)c(C(=O)N3Cc4ccc(C(=O)N5CCN(c6ccncc6)CC5)n4Cc4ccccc43)cc2Cl)c1 [Example 120, {10-[(6-Chloro-3,3′-dimethoxy-[1,1′-biphenyl]-4-yl)carbonyl]-10,11-dihydro-5H-pyrrolo[2,1-c][1,4]benzodiazepin-3-yl}[4-(4-pyridinyl)-1-piperazinyl]methanone] | – |
| 57 | COc1cc(C(=O)N2Cc3ccc(C(=O)N(C)CCc4ccccn4)n3Cc3ccccc32)ccc1-n1c(C)ccc1C [Example 144, 10-[4-(2,5-Dimethyl-1H-pyrrol-1-yl)-3-methoxybenzoyl]-N-methyl-N-[2-(pyridin-2-yl)ethyl]-10,11-dihydro-5H-pyrrolo[2,1-c][1,4]benzodiazepine-3-carboxamide] | – |
| 95 | Cc1cc(C(=O)N2Cc3ccc(C(=O)N(C)CCc4ccncc4)n3Cc3ccccc32)ccc1-c1ccccc1C(F)(F)F [Example 137, N-Methyl-10-{[2-methyl-2′-trifluoromethyl-[1,1′-biphenyl]-4-yl]carbonyl}-N-[2-(4-pyridinyl)ethyl]-10,11-dihydro-5H-pyrrolo[2,1-c][1,4]benzodiazepine-3-carboxamide] | – |
| 93 | Cc1cc(C(=O)N2Cc3ccc(C(=O)N4CCCCC4c4cccnc4)n3Cc3ccccc32)ccc1-c1ccccc1C(F)(F)F (stereo not drawn) [Example 142, (10-{[2-Methyl-2′-trifluoromethyl-[1,1′-biphenyl]-4-yl]carbonyl}-10,11-dihydro-5H-pyrrolo[2,1-c][1,4]benzodiazepin-3-yl)[2-(3-pyridinyl)-1-piperidinyl]methanone] | – |
| 88 | COc1cc(C(=O)N2Cc3ccc(C(=O)N(C)CCc4ccncc4)n3Cc3ccccc32)ccc1-c1cccc2ccccc12 [Example 134, 10-[3-Methoxy-4-(naphthalen-1-yl)benzoyl]-N-methyl-N-[2-(4-pyridinyl)ethyl]-10,11-dihydro-5H-pyrrolo[2,1-c][1,4]benzodiazepine-3-carboxamide] | – |
| 99 | COc1cc(C(=O)N2Cc3ccc(C(=O)N(C)CCc4ccncc4)n3Cc3ccccc32)ccc1-c1ccccc1C [Example 131, 10-[(2-Methoxy-2′-methyl-[1,1′-biphenyl]-4-yl)carbonyl]-N-methyl-N-[2-(4-pyridinyl)ethyl]-10,11-dihydro-5H-pyrrolo[2,1-c][1,4]benzodiazepine-3-carboxamide] | – |

The next lines start with the molecule.

| SMILES | inhibition at 0.1 µM [%] | OT % inhibition @ 100 nM [%] |
| --- | --- | --- |
| COc1ccccc1-c1ccc(C(=O)N2Cc3ccc(C(=O)NCc4cccnc4)n3Cc3ccccc32)cc1 [Example 39, 10-[(2′-Methoxy-[1,1′-biphenyl]-4-yl)carbonyl]-N-(3-pyridinylmethyl)-10,11-dihydro-5H-pyrrolo[2,1-c][1,4]benzodiazepine-3-carboxamide] | 35 | – |
| Cc1cc(C(=O)N2Cc3ccc(C(=O)NCc4cccnc4)n3Cc3ccccc32)ccc1-c1ccccc1C(F)(F)F [Example 48, 10-{[2-Methyl-2′-trifluoromethyl-[1,1′-biphenyl]-4-yl]carbonyl}-N-(3-pyridinylmethyl)-10,11-dihydro-5H-pyrrolo[2,1-c][1,4]benzodiazepine-3-carboxamide] | 15 | – |
| COc1cccc(-c2ccc(C(=O)N3Cc4ccc(C(=O)N(C)Cc5cccnc5)n4Cc4ccccc43)cc2OC)c1 [Example 110] | – | 94 |
| COc1cccc(-c2ccc(C(=O)N3Cc4ccc(C(=O)N5CCN(c6ccncc6)CC5)n4Cc4ccccc43)cc2C)c1 [Example 115, {10-[(3′-Methoxy-2-methyl-[1,1′-biphenyl]-4-yl)carbonyl]-10,11-dihydro-5H-pyrrolo[2,1-c][1,4]benzodiazepin-3-yl}[4-(4-pyridinyl)-1-piperazinyl]methanone] | 66 | – |
| COc1ccccc1-c1ccc(C(=O)N2Cc3ccc(C(=O)NCc4ccccn4)n3Cc3ccccc32)cc1 [Example 26, 10-[(2′-Methoxy-[1,1′-biphenyl]-4-yl)carbonyl]-N-(2-pyridinylmethyl)-10,11-dihydro-5H-pyrrolo[2,1-c][1,4]benzodiazepine-3-carboxamide] | 47 | – |
| COc1cc(C(=O)N2Cc3ccc(C(=O)N4CCN(c5ccncc5)CC4)n3Cc3ccccc32)ccc1-c1ccccc1C [Example 118] | – | 83 |
| COc1cccc(-c2cc(OC)c(C(=O)N3Cc4ccc(C(=O)NCCc5ccccn5)n4Cc4ccccc43)cc2Cl)c1 [Example 56, 10-[(6-Chloro-3,3′-dimethoxy-[1,1′-biphenyl]-4-yl)carbonyl]-N-[2-(2-pyridinyl)ethyl]-10,11-dihydro-5H-pyrrolo[2,1-c][1,4]benzodiazepine-3-carboxamide] | 31 | – |
| COc1cccc(-c2ccc(C(=O)N3Cc4ccc(C(=O)NCCc5ccccn5)n4Cc4ccccc43)cc2OC)c1 [Example 59, 10-[(2,3′-Dimethoxy-[1,1′-biphenyl]-4-yl)carbonyl]-N-[2-(2-pyridinyl)ethyl]-10,11-dihydro-5H-pyrrolo[2,1-c][1,4]benzodiazepine-3-carboxamide] | 40 | – |
| COc1cc(C(=O)N2Cc3ccc(C(=O)NCc4cccnc4)n3Cc3ccccc32)ccc1-c1cccc2ccccc12 [Example 44, 10-[3-Methoxy-4-(naphthalen-1-yl)benzoyl]-N-(3-pyridinylmethyl)-10,11-dihydro-5H-pyrrolo[2,1-c][1,4]benzodiazepine-3-carboxamide] | 22 | – |
| COc1cc(-c2ccccc2C)c(Cl)cc1C(=O)N1Cc2ccc(C(=O)NCc3ccccn3)n2Cc2ccccc21 [Example 29, 10-[(6-Chloro-3-methoxy-2′-methyl-[1,1′-biphenyl]-4-yl)carbonyl]-N-(2-pyridinylmethyl)-10,11-dihydro-5H-pyrrolo[2,1-c][1,4]benzodiazepine-3-carboxamide] | 42 | – |
| COc1cc(C(=O)N2Cc3ccc(C(=O)N(C)Cc4cccnc4)n3Cc3ccccc32)ccc1-c1cccc2ccccc12 [Example 109, 10-[3-Methoxy-4-(naphthalen-1-yl)benzoyl]-N-methyl-N-(3-pyridinylmethyl)-10,11-dihydro-5H-pyrrolo[2,1-c][1,4]benzodiazepine-3-carboxamide] | 70 | – |
| COc1cc(C(=O)N2Cc3ccc(C(=O)NCc4ccccn4)n3Cc3ccccc32)ccc1-c1cccc2ccccc12 [Example 31, 10-[3-Methoxy-4-(naphthalen-1-yl)benzoyl]-N-(2-pyridinylmethyl)-10,11-dihydro-5H-pyrrolo[2,1-c][1,4]benzodiazepine-3-carboxamide] | 18 | – |
| COc1cc(C(=O)N2Cc3ccc(C(=O)N(C)Cc4cccnc4)n3Cc3ccccc32)ccc1-c1ccccc1C [Example 106, 10-[(2-Methoxy-2′-methyl-[1,1′-biphenyl]-4-yl)carbonyl]-N-methyl-N-(3-pyridinylmethyl)-10,11-dihydro-5H-pyrrolo[2,1-c][1,4]benzodiazepine-3-carboxamide] | 98 | – |
